Molecules are shown by their SMILES.

Consider `CN1C(=O)CN=C(N2CCC(C)(C)CC2)c2ccccc21`, for which the melting point fell in the range of 143 to 145 °C.
Consider `CN(C(F)F)S(=O)(=O)c1ccccc1S(N)(=O)=O`, for which the melting point is 128 °C.
Next, `COc1cccc(CNC(=O)c2nc3scc(CNC(=O)c4ccc(C(=O)O)cc4)c3c(=O)[nH]2)c1`: 285 to 286 °C; `CCOC1(NC(=O)c2ccccc2)CC1`: 108 to 109 °C; `Cc1ccc(S(=O)(=O)N2CCCC2c2ccc(F)cc2)cc1Cl` (racemic): 134 °C.
Consider `S=C(SSC(=S)c1ccccc1)c1ccccc1`, for which the melting point fell in the range of 89 to 91 °C.
Next, `O=C(NC1CCC(CCN2CCN(c3nccc4c3CCO4)CC2)CC1)C(O)C(F)(F)F` (racemic): 204 °C; `CN1CC=C(c2ccnc(C(=O)N(O)Cc3ccccc3)c2)CC1`: 135 to 155 °C; `CCCc1c(OCCCCCC(=O)c2ccc3cc(OC)c(OC)cc3c2)ccc(C(=O)OC)c1O`: 111 to 112 °C.
Next, `CC12CC(O)C3(F)C(CCC4=CC(=O)C=CC43C)C1CCC2S` (centres undefined): 295 to 297 °C; `Cn1cc(C2=C(c3cn(CCCN=[N+]=[N-])c4ccccc34)C(=O)NC2=O)c2ccccc21`: 222 to 224 °C.
Next, `CCCn1cc(C(=O)NCc2ccc(Cl)cc2)c(=O)c2cc(CN3CCOCC3)sc21`: 174 to 176 °C; `COc1ccc(S(=O)(=O)C(CCc2ccccc2)CC(=O)O)cc1OC` (centres undefined): 161 to 162 °C.
With `CNc1c([N+](=O)[O-])cc(C(C)(C)C)cc1[N+](=O)[O-]`, the melting point lay in the range of 129 to 130 °C.
Next, `C=CCO[C@H]1[C@@H](OCc2ccccc2)[C@@H](OCc2ccccc2)[C@H](OCc2ccccc2)[C@@H](OCc2ccccc2)[C@]1(O)CC=C` (racemic): 97.5 °C; `CC(Sc1ccc(OC(C)(C)C(=O)O)cc1)c1cccc2c1cnn2-c1ccc(C(F)(F)F)cc1` (racemic): 85 to 90 °C; `CN1C(=O)C2(COc3cc4c(cc32)OCCO4)c2c(-c3ccoc3)cccc21` (centres undefined): 178 to 180 °C.
As for `CN1CCN(c2ncnc3oc(-c4ccccc4)c(-c4ccc(F)cc4)c23)CC1`, the melting point lay within 143 to 144 °C.
Next, `Cc1cc(=O)n(-c2ccc(Cl)cc2F)c(=O)[nH]1`: over 220 °C; `CCNC(=O)[C@@H](C[C@H](O)[C@H](CC1CCCCC1)NC(=O)OC(C)(C)C)C(C)(C)O`: 155 to 157 °C.
Next, `CCCCCCCCOCCCN=C=O`: 74 to 76 °C; `CS(=O)(=O)c1ccc(Oc2ccc(Cl)c(Cl)c2)c(Cl)c1`: 102 to 104 °C.
For `CCCN(CCC)CCCC1CCN(CCNC(=O)N2c3ccccc3C(=O)Nc3cccnc32)CC1` the value was 169 to 170 °C; for `COC(=O)/C=C(/C#Cc1ccccc1)c1ccccc1`, 73 to 75 °C; for `COc1cn(C(C)=O)c2ccc(F)c(Cl)c12`, 114 to 115 °C.
Take `O=C(O)c1ccc(OC(F)(F)F)c([N+](=O)[O-])c1`: the melting point lay in the range of 137 to 139 °C.
For the compound `CCOC(=O)c1cc(F)c(C2CNCC2NC(=O)OC(C)(C)C)cc1F` (centres undefined), the melting point lay within 98 to 100 °C.
For `COc1ccc2cc(C(C)C(=O)OCC(=O)OCCO[N+](=O)[O-])ccc2c1` (centres undefined), the melting point lay within 44 to 45 °C.
`CCCOc1cccc(CO)c1-c1ccc(OC)cc1O` returned a melting point of 102 to 103 °C.
As to `CCCCNC(=S)N1CCc2[nH]cnc2C1CC` (centres undefined), the melting point is 180 °C.
Next, `CS(=O)(=O)c1ccc(Oc2ccc(C#N)cc2)cc1`: 127 to 128 °C.
The compound `COc1cc2c3ccc(OC)c(OC)c3n(S(=O)(=O)c3cc(Cl)ccc3Cl)c2cc1OC` yielded a melting point of 221 to 224 °C.
Consider `CC1(C)CN(C2CCN(c3ccc(F)c(Cl)c3)C2=O)C1=O` (centres undefined), for which the melting point is 120 to 121 °C.
Next, `C#Cc1cccc(Nc2ncnc3[nH]cc(-c4ccc(C)cc4)c23)c1`: 245 to 247 °C.

Source of the values: a melting point compilation (Tetko et al.; mined from patent text by program, amines drawn as free bases though some values may be those of a salt).
